Measured values as given in patent US9944721B2, “Polysialic acid and use for treatment of neurodegenerative and neuroinflammatory diseases” (RHEINISCHE FRIEDRICH-WILHELMS UNIVERSITÄT BONN, priority 2013, dated 2018).

Tests used:
[1] = test system: human microglial line derived from induced pluripotent stem cells (expressing Siglec-11); assay: MTT cell viability of human microglia treated with sialic acid forms; assay type: cell-based
Experimental: A human microglial line derived from induced pluripotent stem cells as described in WO 2010/125110 was used to study the effect of sialic acid forms with different chain length. Human microglial cells were cultured on 5 μg/ml poly-L-lysin (PLL, Sigma)-coated dishes in N2-medium containing DMEM/F12 culture medium (Gibco) supplemented with 1% N2 (Invitrogen), 0.48 mM L-glutamine (Gibco) and optionally 100 μg/ml penicillin/streptomycin (Gibco). Cells were cultured with high density and splitted 1:2 when required.
The effect of different length and fractions of oligosialic acids and polysialic acids on the human microglial lines were analyzed by determination of cell viability normalized to the cell number and after treatment with monomeric sialic acid (SA, molecular weight of 0.3 kDa, Nacalai Tesque ING, Japan) and sialic acids consisting of 3 monomers (Tri-SA; molecular weight of 0.9 kDa, Nacalai Tesque ING, Japan) and sialic acids consisting of 6 monomers (Hexa-SA; molecular weight of 1.9 kDa, Nacalai Tesque ING, Japan), PSA with a number of sialic acid monomers between 14 and 26 (PSA-20; low molecular weight of PSA between 4.3 and 8 kDa for >90% of the substance) and PSA with a length between 46 and 110 of sialic acid monomers (PSA-60; medium molecular weight of PSA between 14.2 and 34 kDa for >90% of the substance).
The microglial cells were cultured in medium as described above and treated in culture with the different sialic acid forms.
Cell viability was determined by the MTT (3-(4,5-Dimethylthiazol-2-yl)-2,5-diphenyltetrazolium bromide, Millipore) assay after 24 hours treatment with distinct sialic acid forms with different chain length and normalized to the cell number. The light absorbance of the purple formazan in living cells was determined by a spectrophotometer at a wavelength of 570 nm (Perkin Elmer, Envision Multiplate Reader).

[2] = Biotinylated PSA-20 in serum and brain after intraperitoneal application (ELISA); assay type: in vivo, mice
Experimental: First, PSA-20 was conjugated with biotin and a sensitive ELISA to detect biotinylated PSA-20 was established. The PSA-20 was coupled with a biotin molecule at the sixth carbon atom of sialic acid at the terminus of the PSA-20 chains. Therefore, the terminus of PSA-20 was oxidized to an aldehyde by sodium metaperiodate. Afterwards, hydrazide coupled biotin was conjugated at room temperature to the aldehyde group to form a hydrazone bond. Purification was carried out with a desalting column (HiTrap Desalting Column GE Healthcare).
Biotin-conjugated PSA-20 (10 μg per g body weight) was applied in adult mice by intraperitoneal application. An ELISA method was used to detect biotinylated PSA-20 in the serum and brain. For the ELISA, NeutrAvidin coated pre-blocked plates (Thermo Scientific) were washed three times with PBST (PBS+0.05% Tween-20). After washing, plasma and brain homogenate as well as defined concentrations of biotinylated PSA-20 as standard were applied for 1 h at room temperature. Plates were washed three times and were incubated with a monoclonal antibody directed against oligosialic acids (rat-anti-mouse CD56, BD Pharmingen #556325) over night at 4° C. The following day the plate were washed three times and incubated with goat anti-mouse immunoglobulin conjugated with peroxidase-HRP (Jackson ImmunoResearch). Then, plates were washed and incubated with 100 μl TMB-reagent for 30 min at room temperature. The reaction was stopped by addition of 100 μl 1N HCl and the signal was detected with an ELISA reader.
Serum and brain tissue of one mouse was analyzed before application and at 0.5, 1, 2, 4 and 8 hours after application. The highest PSA-20 level was detected in the serum at 0.5 hours and in the brain at 2 hours. The half-time of PSA-20 in the serum and in the brain was estimated to be between 2 and 3 hours. The bioavailability of PSA-20 in the brain in relation to the serum was estimated to be between 1 and 3%. […] As can be taken from the FIG. 10C, PSA-20 was detected in the serum and the brain. […]

[3] = biotin-conjugated PSA-20, 10 μg per g body weight i.p., adult mice

- passage of the blood-brain barrier ([2]; after systemic application): passed the blood-brain barrier
- time of peak concentration in the brain [2, 3]: 2 h
- time of peak concentration in the serum [2, 3]: 0.5 h
Substance: poly-(α(2→8)Neu5Ac)n [PSA-20]
- metabolic activity of the microglial cells (MTT, normalized to cell number) ([1]; 24 hours treatment, 0.15 μM, 0.5 μM and 1.5 μM, FIG. 2B): did not affect the metabolic activity
- Intact viability of human microglia ([1]; summary of Example 3, MTT, 24 hours): Yes
